Data set [1] in a line: Selectivity ratio of IC50 for cytotoxicity against human MCF-10A cells assessed as inhibition of cell growth to IC50 for cytotoxicity against human MDA-MB-231 cells assessed as inhibition of cell growth. To be noted: MCF-10A cells versus MDA-MB-231 cells, read-out: Ratio IC50. Format: toxicity, cell-based.
Data set [2] is described as follows: Selectivity ratio of IC50 for cytotoxicity against human HEK293 cells assessed as inhibition of cell growth to IC50 for cytotoxicity against human MDA-MB-231 cells assessed as inhibition of cell growth. To be noted: HEK293 cells versus MDA-MB-231 cells, read-out: Ratio IC50. The format is toxicity, cell-based.
A further data set deals with MCF7. In words: Cytotoxicity against human MCF7 cells assessed as inhibition of cell growth incubated for 72 hrs by MTT assay. Format: functional, cell-based. The conditions noted are these: MCF7, 72 h.
The subject of another data set is 4T1. Put plainly: Cytotoxicity against mouse 4T1 cells assessed as inhibition of cell growth incubated for 72 hrs by MTT assay. The conditions noted are these: 4T1, 72 h. Format: functional, cell-based.
A short description of data set [3]: Selectivity ratio of IC50 for cytotoxicity against human MCF-10A cells assessed as inhibition of cell growth to IC50 for cytotoxicity against human MCF7 cells assessed as inhibition of cell growth. To be noted: MCF-10A cells versus MCF7 cells, read-out: Ratio IC50. Format: toxicity, cell-based.
The nature of data set [4]: Selectivity ratio of IC50 for cytotoxicity against human HEK293 cells assessed as inhibition of cell growth to IC50 for cytotoxicity against human MCF7 cells assessed as inhibition of cell growth. Format: toxicity, cell-based. To be noted: HEK293 cells versus MCF7 cells, read-out: Ratio IC50.
The next data set concerns MDA-MB-231. Put plainly: Cytotoxicity against human MDA-MB-231 cells assessed as inhibition of cell growth incubated for 72 hrs by MTT assay. Format: functional, cell-based. To be noted: MDA-MB-231, 72 h.
Data set [5] can be described thus: Selectivity ratio of IC50 for cytotoxicity against human HEK293 cells assessed as inhibition of cell growth to IC50 for cytotoxicity against mouse 4T1 cells assessed as inhibition of cell growth. The conditions noted are these: HEK293 cells versus 4T1 cells, read-out: Ratio IC50. The format is toxicity, cell-based.
The nature of data set [6]: Selectivity ratio of IC50 for cytotoxicity against human HCEC cells assessed as inhibition of cell growth to IC50 for cytotoxicity against human MDA-MB-453 cells assessed as inhibition of cell growth. The conditions noted are these: HCEC cells versus MDA-MB-453 cells, read-out: Ratio IC50. Format: toxicity, cell-based.
Data set [7] is described as follows: Selectivity ratio of IC50 for cytotoxicity against human HCEC cells assessed as inhibition of cell growth to IC50 for cytotoxicity against mouse 4T1 cells assessed as inhibition of cell growth. Format: toxicity, cell-based. The conditions noted are these: HCEC cells versus 4T1 cells, read-out: Ratio IC50.
Data set [8] is described as follows: Cytotoxicity against human HCEC cells assessed as inhibition of cell growth incubated for 72 hrs by MTT assay. The format is toxicity, cell-based. To be noted: human, HCEC cells.
The next data set relates to MDA-MB-453. In words: Cytotoxicity against human MDA-MB-453 cells assessed as inhibition of cell growth incubated for 72 hrs by MTT assay. Format: functional, cell-based. The conditions noted are these: MDA-MB-453, 72 h.
The nature of data set [9]: Selectivity ratio of IC50 for cytotoxicity against human HEK293 cells assessed as inhibition of cell growth to IC50 for cytotoxicity against human MDA-MB-453 cells assessed as inhibition of cell growth. The conditions noted are these: HEK293 cells versus MDA-MB-453 cells, read-out: Ratio IC50. Format: toxicity, cell-based.
The nature of data set [10]: Cytotoxicity against human HEK293 cells assessed as inhibition of cell growth incubated for 72 hrs by MTT assay. The format is toxicity, cell-based.
Data set [11] in a line: Selectivity ratio of IC50 for cytotoxicity against human HCEC cells assessed as inhibition of cell growth to IC50 for cytotoxicity against human MDA-MB-231 cells assessed as inhibition of cell growth. The conditions noted are these: HCEC cells versus MDA-MB-231 cells, read-out: Ratio IC50. Format: toxicity, cell-based.
Data set [12] in a line: Selectivity ratio of IC50 for cytotoxicity against human MCF-10A cells assessed as inhibition of cell growth to IC50 for cytotoxicity against human MDA-MB-453 cells assessed as inhibition of cell growth. Format: toxicity, cell-based. To be noted: MCF-10A cells versus MDA-MB-453 cells, read-out: Ratio IC50.
Data set [13] can be described thus: Selectivity ratio of IC50 for cytotoxicity against human HCEC cells assessed as inhibition of cell growth to IC50 for cytotoxicity against human MCF7 cells assessed as inhibition of cell growth. To be noted: HCEC cells versus MCF7 cells, read-out: Ratio IC50. The format is toxicity, cell-based.
Data set [14] can be described thus: Selectivity ratio of IC50 for cytotoxicity against human MCF-10A cells assessed as inhibition of cell growth to IC50 for cytotoxicity against […] cells assessed as inhibition of cell growth. Format: toxicity, cell-based. The conditions noted are these: MCF-10A cells versus 4T1 cells, read-out: Ratio IC50.
Data set [15] in a line: Cytotoxicity against human MCF-10A cells assessed as inhibition of cell growth incubated for 72 hrs by MTT assay. Format: toxicity, cell-based.

Consider `CCCCNNC(=O)c1cnc(N)cn1`, for which the selectivity ratio in data set [1], in data set [2], in data set [3], in data set [4], in data set [5] and in [6] was more than 40 in each case. Also, the selectivity ratio in data set [7], in data set [9], in [11], in data set [12], in [13] and in data set [14] was more than 40 each time. Besides, the half-maximal inhibitory concentration (IC50) in the data set with MCF7 was 1.81 µM; with 4T1, 1.27 µM; in the data set with MDA-MB-231, 1.25 µM; in the data set with MDA-MB-453, 3.33 µM. For the same compound, the IC50 at 72 h amounted to 215 µM in data set [8], 133 µM in data set [10] and 118 µM in data set [15].

Regarding `CCCCNNC(=O)c1cnccn1`, the selectivity ratio in data set [1], in data set [2], in data set [3], in data set [4], in data set [5] and in [6] was more than 40 throughout. Further, the selectivity ratio in [7], in data set [9], in [11], in data set [12], in [13] and in data set [14] was more than 40 in each case. The IC50 turned out to be 2.44 µM in the data set with MCF7, 0.88 µM in the data set with 4T1, 1.17 µM with MDA-MB-231 and 2.52 µM in the data set on MDA-MB-453. Besides, the IC50 at 72 h in [8] turned out to be 175 µM; in data set [10] it was 101 µM; in data set [15], 103 µM.

Take `CCCCNNC(=O)c1cnc(NC(=O)c2ccc3[nH]ccc3c2)cn1`: the IC50 with MCF7 was determined as 2.44 µM; in the data set with 4T1, 1.43 µM; in the data set with MDA-MB-231, 1.69 µM; in the data set with MDA-MB-453 it was 4.05 µM. The values for the IC50 at 72 h in data set [8], in data set [10] and in data set [15] were 130 µM, 107 µM and 105 µM, respectively.

For the compound `CCCCNNC(=O)c1cnc(Nc2cccc3ccccc23)cn1`, the selectivity ratio in data set [1], in data set [2], in data set [3], in data set [4], in [5] and in data set [6] was more than 40 throughout. Besides, the selectivity ratio in [7], in data set [9], in data set [11], in data set [12], in data set [13] and in data set [14] was more than 40 throughout. Further, the IC50 was found to be 4.16 µM with MCF7, 0.98 µM in the data set on 4T1, 2.02 µM with MDA-MB-231 and 4.67 µM in the data set on MDA-MB-453. Further, the IC50 at 72 h in data set [8] worked out at 151 µM; in data set [10], 189 µM; in data set [15], 114 µM.

Take `CCCCNNC(=O)c1cnc(Nc2ccccc2)cn1`: the selectivity ratio in data set [1], in data set [2], in data set [3], in data set [4], in [5] and in [6] was more than 40 throughout. Further, the selectivity ratio in data set [7], in [9], in data set [11], in data set [12], in data set [13] and in data set [14] was more than 40 each time. The IC50 was determined as 1.14 µM with MCF7, 2.17 µM in the data set on 4T1, 1.91 µM with MDA-MB-231 and 5.18 µM in the data set on MDA-MB-453. Moreover, the IC50 at 72 h is 180 µM in [8], 207 µM in data set [10] and 138 µM in data set [15].

Turning to `CCCNNC(=O)c1cnccn1`, the selectivity ratio in data set [1], in data set [2], in [3], in data set [4], in data set [5] and in data set [6] was more than 40 each time. The selectivity ratio in data set [7], in [9], in [11], in data set [12], in [13] and in data set [14] was more than 40 in each case. Further, the IC50 in the data set on MCF7 was 1.39 µM; in the data set on 4T1 it was 1.14 µM; in the data set with MDA-MB-231 it was 1.07 µM; with MDA-MB-453, 2.49 µM. The IC50 at 72 h was found to be 128 µM in [8], 134 µM in [10] and 117 µM in data set [15].

As for `CCCCNNC(=O)c1cnc(NC(=O)c2ccc3ncccc3c2)cn1`, the selectivity ratio in data set [1], in data set [2], in data set [3], in data set [4], in data set [5] and in data set [6] was more than 40 in each case. For the same compound, the selectivity ratio in data set [7], in [9], in [11], in data set [12], in data set [13] and in data set [14] was more than 40 throughout. In addition, the IC50 turned out to be 1.36 µM with MCF7, 2.92 µM in the data set with 4T1, 2.84 µM in the data set on MDA-MB-231 and 4.92 µM in the data set on MDA-MB-453. The IC50 at 72 h in [8] is 234 µM; in data set [10], 264 µM; in data set [15], 220 µM.

Take `CCCNNC(=O)c1cnc(NC(C)=O)cn1`: the selectivity ratio in data set [1], in data set [2], in data set [3], in data set [4], in data set [5] and in data set [6] was more than 40 throughout. The selectivity ratio in data set [7], in data set [9], in data set [11], in [12], in data set [13] and in data set [14] was more than 40 in each case. Besides, the IC50 was 1.21 µM in the data set with MCF7, 0.92 µM with 4T1, 0.97 µM in the data set on MDA-MB-231 and 1.93 µM in the data set on MDA-MB-453. Also, the IC50 at 72 h in [8] was 164 µM; in [10], 118 µM; in [15], 142 µM.

With `CCCNNC(=O)c1cnc(N2CCCCC2)cn1`, the selectivity ratio in data set [1], in data set [2], in [3], in data set [4], in data set [5] and in data set [6] was more than 40 in each case. Moreover, the selectivity ratio in data set [7], in data set [9], in data set [11], in data set [12], in data set [13] and in [14] was more than 40 each time. Besides, the IC50 with MCF7 worked out at 2.44 µM; in the data set with 4T1, 0.89 µM; with MDA-MB-231, 132 µM; in the data set on MDA-MB-453 it was 2.87 µM. For the same compound, the IC50 at 72 h in data set [8] is 163 µM; in [10] it was 118 µM; in [15], 110 µM.

For the compound `CCCCNNC(=O)c1cnc(N2CCCCC2)cn1`, the concentration for half-maximal inhibition (IC50) was determined as 1.87 µM in the data set on MCF7, 3.86 µM in the data set with 4T1, 2.93 µM in the data set on MDA-MB-231 and 6.79 µM with MDA-MB-453. Further, the IC50 at 72 h in [8] was determined as 119 µM; in [10], 101 µM; in data set [15] it was 104 µM.

As to `CCCCNNC(=O)c1cnc(NC(C)=O)cn1`, the IC50 in the data set with MCF7 is 1.65 µM; in the data set with 4T1, 2.74 µM; with MDA-MB-231, 3.05 µM; in the data set with MDA-MB-453, 7.94 µM. Further, the IC50 at 72 h turned out to be 187 µM in data set [8], 229 µM in [10] and 106 µM in [15].

Source of the values: ChEMBL document CHEMBL5365457, “Selective HDAC3 Inhibitors with Potent In Vivo Antitumor Efficacy against Triple-Negative Breast Cancer” (J Med Chem, 2023).
